Results taken from patent EP2511272B1, “Synthetic analogues of abscisic acid with anti-inflammatory and insulin release stimulation effects on human cells” (Universita' degli Studi di Genova, priority 2011, dated 2012).

System: human granulocytes
Test: Inhibition of ABA-induced PGE2 production in granulocytes (EIA)
Format: cell-based
Details: 6 h
Description: Granulocytes, in a number of 1x10^7 per point in RPMI supplemented with 10 % of foetal calf serum (FCS), penicillin (50 units/ml) and streptomycin (50 µg/ml) (complete RPMI), were incubated for 6 h with […] either alone or in the presence compound prepared according to example 1 at a concentration of 100 nM or of 1 µM. At the end of the incubation, the substrate was centrifuged at 17,000xg for 5 minutes and the concentration of PGE2 was quantitated by using the kit: PGE2 monoclonal EIA kit (Cayman Chemical Co.), following the instructions suppled by the manufacturer.
The cells were lysed in 200 µl of deionized water in order to quantitate total proteins by the Bradford method (Bradford, M. M., 1976), after thre preliminary generation of a reference standard curve, obtained with different concentrations of bovine serum albumin. The spectrophotometric measurements were carried out at wavelength of 595 nm.
The experiment was carried out three times in triplicate TABLE 6). TABLE 6. Inhibition of PGE2 production, in human granulocytes stimulated with ABA, by compound prepared according to example 1

In the case of CC(=C/C(=O)O)/C=C/C1(O)C(C)(C)CC(=O)C2OC21C (stereo not drawn) [Example 1, 2'α,3'α-dihydro-2'α,3'α-epoxyabscisic acid], the inhibition at 0.1 µM (ABA 100 nM + compound 100 nM) is reported as 85% and the inhibition at 1 µM (ABA 100 nM + compound 1 µM) is reported as 100%.
